Experimental data from patent US20250064774A1, “FORMULATIONS AND METHODS OF MAKING AND USING THE SAME” (AraVai Global LLC, priority 2021, published 2025).

Tested on: skin of the intrascapular regions of the back
Assay: Repeat insult patch test under occlusive conditions (induction and challenge)
Details: positive control
From the text: The raw material ingredients to be tested under occlusive conditions were placed on an 8-millimeter aluminum Finn Chamber® (Epitest Ltd. Oy, Tuusula, Finland) supported on Scanpor® Tape (Norgesplaster A/S, Kristiansand, Norway) or an 8-millimeter filter paper coated aluminum Finn Chamber® AQUA supported on a thin flexible transparent polyurethane rectangular film coated on one side with a medical grade acrylic adhesive, consistent with adhesive used in state-of-the-art hypoallergenic surgical tape or a 7 mm IQ-ULTRA® closed cell system which is made of additive-free polyethylene plastic foam with a filter paper incorporated. It is supplied in units of 10 chambers on a hypoallergenic non-woven adhesive tape; the width of the tape is 52 mm and the length is 118 mm or other equivalents. […]
Approximately 0.02-0.05 mL for liquid materials and/or 0.02-0.05 g for solid materials of the test material was used for the study. […] Prior to each reapplication, the test sites evaluated by trained laboratory personnel. […] Test sites were evaluated by trained laboratory personnel 48 and 96 hours after application. In the event of an adverse reaction, the area of erythema and edema were measured. […] Subjects were instructed to report any delayed reactions that might occur after the final reading. […]

## CCCCCCCCCCCCOS(=O)(=O)[O-].[Na+] [2.0% Sodium Lauryl Sulfate Solution, Sodium Lauryl Sulfate]
  subjects with a Grade 1 reaction: ten
  subjects with a Grade 4 reaction: one
